Source: US7968721B2, “Large-scale synthesis of selective androgen receptor modulators” (University of Tennessee Research Foundation, priority 2003, dated 2011)

Tests used:
[1] = system: androgen receptor
Text: Assays to determine whether the compounds of the present invention are AR agonists or antagonists are well known to a person skilled in the art. For example, AR agonistic activity can be determined by monitoring the ability of the SARM compounds to maintain and/or stimulate the growth of AR containing tissue such as prostate and seminal vesicles, as measured by weight. AR antagonistic activity can be determined by monitoring the ability of the SARM compounds to inhibit the growth of AR containing tissue.

[2] = system: spermatogenesis; settings: weekly intramuscular injections, men receiving therapy; cited from earlier work

Row | Compound | action at the androgen receptor in vivo [1] | anabolic and androgenic effects in vivo [1] | men with azoospermia or severe oligospermia (less than 3 million sperm per ml) and infertility [2] [%]
1 | CC(=O)Nc1ccc(OC[C@](C)(O)C(=O)Nc2ccc([N+](=O)[O-])c(C(F)(F)F)c2)cc1 [Compound (1), 3-[4-(acetylamino)phenoxy]-2-Hydroxy-2-methyl-N-[3trifluoromethyl-4-nitro-phenyl)-proprionamide] | partial agonist | strong anabolic and weakly androgenic effects | –
2 | CCCCCCC(=O)O[C@H]1CC[C@H]2[C@@H]3CCC4=CC(=O)CC[C@]4(C)[C@H]3CC[C@]12C [testosterone enanthate] | – | – | 98
